Source: patent EP3536368B1, “DRY POWDER INHALER COMPRISING A SEROTONIN RECEPTOR AGONIST AND A DIKETOPIPERAZINE FOR TREATING MIGRAINES” (MannKind Corporation, priority 2010, dated 2012)
Where two headings read alike, the source gives them in different places.

Key:
[1] = rat, in vivo
[2] = system: migraine model in anesthetized dogs; experiment: Pharmacodynamic study, capsaicin-induced carotid vasodilation migraine model; format: in vivo, Beagle Dogs; details: regardless of the route of administration
in vivo = details: female, Sprague Dawley, rat, iv

CNS(=O)(=O)Cc1ccc2[nH]cc(CCN(C)C)c2c1 [Sumatriptan, sumatriptan]
tolerability [1]: well tolerated | AUC ([1]; iv): 273,729 (min,ng/mL)mg | Cmax ([1]; iv): 26,719 ng/mL/mg | AUC ([1]; sc): 99,583 (min,ng/mL)mg | Cmax ([1]; sc): 2309 ng/mL/mg | Blood pressure and heart rate [2]: unaltered | half-life (in vivo): 5.07 h
